Test results as given in US10766873B2, “Zuclopenthixol hydrochloride derivatives and Ebselen derivatives as ErbB2 inhibitors” (Centre National de la Recherche Scientifique (CNRS), priority 2016, dated 2020).

Assays:
[1] = test system: HBMEC; assay: MTT cell proliferation, HBMEC control cells; format: cell-based, human
Description: We then analyzed the ability of ZU and EB1 and their derivatives to decrease the ErbB2-dependent cell proliferation.
SKBR3, BT474, MCF-7, MDA-MB-231 and HBMEC cells were treated with the compounds as indicated, and cell proliferation was determined each day during 3 days using an MTT assay. Non treated cells were included as a negative control.
(§1) The WT, V777L or V842I ErbB2-transfected cells were treated with 5 or 10 μM of ZU and cell proliferation was determined each day during 3 days using an MTT assay. Non transfected cells were included as a negative control.
(§2) The WT, V777L or V842I ErbB2-transfected cells were treated with 5 or 10 μM of EB1 and cell proliferation was determined each day during 3 days using an MTT assay. Non transfected cells were included as a negative control.

[2] = target: T1, WT ErbB2 (Homo sapiens, UniProt P04626); assay: Western blot pY1248, WT ErbB2 in transfected HBMECs; format: cell-based; details: 0, 5, 10 or 20 μM, 48 h
T1 construct: expressed in transfected cells; host or cells: HBMEC
Description: HBMECs cells were transfected with plasmids encoding WT, ΔEBM (a form of ErbB2 carrying mutations in the juxtamembrane domain and unable to bind to the Ezrin FERM domain), V659E or p95 ErbB2 and treated with 0, 5, 10 or 20 μM ZU for 24 h. ErbB2 activation was then analyzed by western blot analysis using a phospho-ErbB2-specific antibody (pY1248) and a tubulin antibody as a loading control. Histograms show optical density quantification.
(§3) HBMECs cells were transfected with plasmids encoding WT, V777L or V842I and treated with 0, 5, 10 or 20 μM ZU or EB1 for 48 h. ErbB2 activation was then analyzed by western blot analysis using a phospho-ErbB2-specific antibody (pY1248) and a total ErbB2 antibody. Histograms show optical density quantification.

[3] = target: T2, V777L ErbB2 (Homo sapiens, UniProt P04626, V777L); assay: Western blot pY1248, V777L ErbB2 in transfected HBMECs; format: cell-based; details: 0, 5, 10 or 20 μM, 48 h
T2 construct: expressed in transfected cells; host or cells: HBMEC
Description: as §3

[4] = target: ErbB2 (Homo sapiens, UniProt P04626); assay: ErbB2 activation in N87 cells, dot blot (4G10); format: cell-based; design: endogenous in cells; host or cells: N87
Description: The phosphotyrosine content in the ErbB2-overexpressing gastric cancer cell line N87 was analyzed by dot blot using an anti-phosphotyrosine antibody (clone 4G10). As in these cells, ErbB2 is the main phosphorylated protein, decreased in total phosphotyrosine content mainly reflected inhibition of ErbB2 activity. As a control, the non-specific ErbB2 kinase inhibitor AG1478 was used. Quantifications show the result of two independent experiments.

[5] = test system: SKBR3; assay: Soft agar colony formation, SKBR3; format: cell-based, human; details: 5 or 10 μM, 6 weeks
Description: A bottom layer of 0.8% agarose in DMEM supplemented with 20% SVF and penicillin/streptomycin was added to 24 well plates before seeding 25.10^3 SKBR3 or BT474 cells/well in a 0.6% agarose top layer. Cells were left untreated or treated with 5 or 10 μM ZU or EB1 or 5 μM AG1478 (a non-specific ErbB2 kinase inhibitor) as a positive control. Treatments were renewed 3 times a week. After 6 weeks, the number of colonies and their size were quantified using image J software. The colony formation is illustrated for each condition. Data are presented as mean±SEM.

[6] = test system: V842I ErbB2-transfected cells; assay: MTT cell proliferation, V842I ErbB2-transfected HBMEC; format: cell-based; details: day 3
Description: as §1, §2

In the case of `O=C1c2ccccc2[Se](=O)N1c1ccccc1` (stereo not shown) [EB1, Ebselen oxide], the “effect on HBMEC proliferation (in words)” value ([1]; 10 μM) is reported as “without any effect”, the “effect on proliferation of non-transfected HBMECs cells (in words)” value ([1]; 10 μM, day 3) is reported as “no effect” and the EC50 ([1]; Homo sapiens, 72 h, read-out: Cell proliferation at d 3 HBMEC EC50, μM) is reported as 99.2 µM. For the same compound, the “Cell proliferation at d 3 HBMEC Max inhibition, %” value ([1]; day 3) was 94.4%, the “ErbB2 WT activation (in words)” value [2] was “potently decrease” and the “ErbB2 V777L activation (in words)” value [3] was “potently decrease”. The “ErbB2 activation in N87 cell line (in words)” value [4] was “potently decrease ErbB2 activation”, the “anchorage-independent growth of SKBR3 (in words)” value [5] was “inhibited the anchorage-independent growth” and the “decrease of the proliferation of V842I transfected HBMEC” value ([6]; 5 μM) was 55%. The “decrease of the proliferation of V842I transfected HBMEC” value ([6]; 10 μM) was 90%.
